Measurements as given in ChEMBL document CHEMBL1201862, “PubChem BioAssay data set” (2004).
Active and inactive are the calls of the source.

Experiments:
SUMO E1/E2 = SUMO E1/E2 (Homo sapiens, UniProt P63279+Q9UBE0+Q9UBT2); assay: SAR analysis of SUMOylation using HTRF in an in-Vitro dose response assay. [Related pubchem assays (depositor defined):AID2006, AID2011, AID2018, AID2069, AID2658]; type: functional
[1] = Luminescence Cell-Based Dose Response HTS to Identify Inhibitors of 5'UTR Stem-Loop Driven Prion Protein mRNA Translation in H4 Neuroglioblastoma Cells. [Related pubchem assays: 1827 (Project Summary), 1813 (Primary HTS)]; type: functional
[2] = Vero E6 cell cytotoxicity, dose response, cytotoxicity control for non-replicating M. tuberculosis project, secondary assay (AID 492998); type: functional, VeroE6; settings: Vero C1008
BJ [3] = assay: cytotoxicity toward BJ-TERT-LT-ST fibroblasts, dose response, cell-based, RAS-independent, luminescence (AID 1935); type: functional; settings: Homo sapiens;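 note: BJ fibroblasts immortalized with TERT plus LT and ST oncogenes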
[4] = insulin promoter down-regulators in MIN6 cells, imaging, high-content screening, mouse beta cells (AID 1628); type: functional
BJ [5] = assay: cells; type: functional, cell-based; settings: Homo sapiens
[6] = cytotoxicity in MIN6 insulinoma cells, dose response, cytotoxicity control, cell-based, mouse insulinoma (AID 2122); type: functional;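 note: confirmatory high-throughput counterscreen run to flag cytotoxic compounds; mouse MIN-6 beta cells carrying an insulin promoter eGFP reporter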
[7] = HepG2 cell cytotoxicity, dose response, cytotoxicity control for non-replicating M. tuberculosis project (AID 489018); type: functional; settings: Mycobacterium tuberculosis
[8] = cytotoxicity in HEK-293T cells, dose response, cytotoxicity control for TCR NF-kB inhibitor project, luminescence, T-cell screen hits (AID 489026); type: functional, cell-based;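 note: cells exposed to compound about 14 hours before the viability readout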
[9] = inhibitors of SNCA 5'UTR-driven reporter translation, confirmation, H4 neuroglioma cells, luminescence (AID 1988); type: functional, cell-based
[10] = cytotoxicity toward DRD oncogenic fibroblasts, dose response, cell-based, non-viral oncogenic, luminescence (AID 1934); type: functional; settings: Homo sapiens
[11] = inhibitors of firefly luciferase expression or activity, dose response, H4 neuroglioma cells, luminescence (AID 1990); type: functional, cell-based
cells = type: functional
[12] = THP-1 cell cytotoxicity, dose response, cytotoxicity control for non-replicating M. tuberculosis project (AID 489025); type: functional
BJ [13] = assay: cytotoxicity toward BJ-TERT fibroblasts, dose response, cell-based, RAS-independent, luminescence (AID 1933); type: functional; settings: Homo sapiens
[14] = target: T1, Tyrosine-protein phosphatase non-receptor type 22 (Homo sapiens, UniProt Q9Y2R2); type: functional
T1 sequence (Q9Y2R2 whole entry): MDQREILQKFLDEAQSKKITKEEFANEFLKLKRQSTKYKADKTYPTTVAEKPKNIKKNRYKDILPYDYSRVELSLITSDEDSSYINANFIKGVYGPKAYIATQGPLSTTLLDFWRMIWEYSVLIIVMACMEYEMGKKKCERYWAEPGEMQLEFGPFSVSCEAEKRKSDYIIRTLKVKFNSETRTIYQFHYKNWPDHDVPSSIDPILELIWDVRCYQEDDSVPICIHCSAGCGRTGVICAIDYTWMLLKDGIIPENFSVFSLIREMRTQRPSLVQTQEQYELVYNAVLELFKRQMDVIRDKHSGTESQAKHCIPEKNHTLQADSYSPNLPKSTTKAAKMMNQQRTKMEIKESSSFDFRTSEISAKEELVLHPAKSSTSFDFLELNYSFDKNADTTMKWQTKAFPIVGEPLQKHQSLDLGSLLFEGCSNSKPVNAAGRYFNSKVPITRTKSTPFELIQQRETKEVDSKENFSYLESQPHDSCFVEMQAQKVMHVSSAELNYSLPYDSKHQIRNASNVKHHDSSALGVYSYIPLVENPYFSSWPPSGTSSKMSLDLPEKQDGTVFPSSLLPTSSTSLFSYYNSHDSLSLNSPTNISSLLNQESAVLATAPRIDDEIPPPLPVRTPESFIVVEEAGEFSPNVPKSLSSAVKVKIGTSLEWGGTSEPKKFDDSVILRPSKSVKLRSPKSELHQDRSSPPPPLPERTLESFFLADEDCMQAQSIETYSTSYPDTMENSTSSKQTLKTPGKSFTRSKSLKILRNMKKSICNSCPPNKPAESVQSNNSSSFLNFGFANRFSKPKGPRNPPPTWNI

[15] = target: T1, Tyrosine-protein phosphatase non-receptor type 22; type: functional; remark: listed apart in the source
[16] = target: T2, Tyrosine-protein phosphatase non-receptor type 7 (Homo sapiens, UniProt P35236); type: functional
T2 sequence (P35236 whole entry): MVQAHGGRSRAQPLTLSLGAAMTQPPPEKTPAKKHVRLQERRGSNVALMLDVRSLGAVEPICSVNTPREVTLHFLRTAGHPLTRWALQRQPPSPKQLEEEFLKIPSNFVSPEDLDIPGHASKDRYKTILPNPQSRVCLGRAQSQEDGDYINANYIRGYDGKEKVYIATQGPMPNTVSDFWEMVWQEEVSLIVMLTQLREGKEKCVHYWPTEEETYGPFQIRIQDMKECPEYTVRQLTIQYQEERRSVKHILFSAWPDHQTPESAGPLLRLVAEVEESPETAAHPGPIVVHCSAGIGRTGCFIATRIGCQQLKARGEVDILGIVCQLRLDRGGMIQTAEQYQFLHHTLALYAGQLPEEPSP

[17] = target: Lysine-specific demethylase 4A (Homo sapiens, UniProt O75164); assay: JMJD2A histone demethylase inhibitors, dose response, selectivity assay for GASC-1 inhibitor project, biochemical, DELFIA europium, cherry-picked samples (AID 488840)
[18] = target: Lysine-specific demethylase 4C (Homo sapiens, UniProt Q9H3R0); assay: GASC-1 (JMJD2C) histone demethylase inhibitors, dose response, biochemical, DELFIA europium, cherry-picked samples (AID 488835); type: functional
[19] = target: T3, Replicative DNA helicase DnaB (Mycobacterium tuberculosis, UniProt P9WMR3); assay: DnaB intein splicing inhibitors, dose response, biochemical, cell-free fluorescence (AID 449749); type: functional
T3 sequence (P9WMR3 whole entry): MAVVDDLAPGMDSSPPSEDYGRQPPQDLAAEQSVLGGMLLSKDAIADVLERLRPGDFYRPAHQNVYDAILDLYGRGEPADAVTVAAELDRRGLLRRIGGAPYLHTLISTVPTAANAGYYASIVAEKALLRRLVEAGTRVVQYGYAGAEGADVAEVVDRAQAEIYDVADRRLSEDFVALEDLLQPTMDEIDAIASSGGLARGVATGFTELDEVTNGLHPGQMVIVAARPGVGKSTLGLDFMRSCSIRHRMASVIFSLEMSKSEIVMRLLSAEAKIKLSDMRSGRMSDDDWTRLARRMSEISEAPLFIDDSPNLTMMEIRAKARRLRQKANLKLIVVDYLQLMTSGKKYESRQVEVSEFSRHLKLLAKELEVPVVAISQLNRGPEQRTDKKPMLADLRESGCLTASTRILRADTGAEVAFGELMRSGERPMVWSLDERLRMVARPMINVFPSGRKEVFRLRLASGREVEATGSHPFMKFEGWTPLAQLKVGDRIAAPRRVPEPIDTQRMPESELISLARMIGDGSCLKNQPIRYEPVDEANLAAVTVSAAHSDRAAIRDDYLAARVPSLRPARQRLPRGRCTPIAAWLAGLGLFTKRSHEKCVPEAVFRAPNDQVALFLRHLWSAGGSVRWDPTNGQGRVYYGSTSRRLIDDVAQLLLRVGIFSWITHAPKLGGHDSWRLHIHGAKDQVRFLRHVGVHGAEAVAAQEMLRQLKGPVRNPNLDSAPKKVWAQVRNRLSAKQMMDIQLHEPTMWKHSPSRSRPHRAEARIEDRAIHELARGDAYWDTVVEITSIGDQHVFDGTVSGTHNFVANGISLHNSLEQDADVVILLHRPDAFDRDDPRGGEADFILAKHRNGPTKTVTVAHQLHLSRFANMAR

Cytochrome P450 2D6 = Cytochrome P450 2D6 (Homo sapiens, UniProt P10635);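 note: CYP2D6 member of a cytochrome P450 panel assay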
Protein RecA = target: T4, Protein RecA (Mycobacterium tuberculosis, UniProt P9WHJ3); assay: Fluorescence Cell-Free Homogeneous Dose Retest to Identify Inhibitors of RecA-Intein Splicing Activity. [Related pubchem assays (depositor defined):AID2097, AID2223, AID489010, AID492950]; type: functional
T4 sequence (P9WHJ3 whole entry): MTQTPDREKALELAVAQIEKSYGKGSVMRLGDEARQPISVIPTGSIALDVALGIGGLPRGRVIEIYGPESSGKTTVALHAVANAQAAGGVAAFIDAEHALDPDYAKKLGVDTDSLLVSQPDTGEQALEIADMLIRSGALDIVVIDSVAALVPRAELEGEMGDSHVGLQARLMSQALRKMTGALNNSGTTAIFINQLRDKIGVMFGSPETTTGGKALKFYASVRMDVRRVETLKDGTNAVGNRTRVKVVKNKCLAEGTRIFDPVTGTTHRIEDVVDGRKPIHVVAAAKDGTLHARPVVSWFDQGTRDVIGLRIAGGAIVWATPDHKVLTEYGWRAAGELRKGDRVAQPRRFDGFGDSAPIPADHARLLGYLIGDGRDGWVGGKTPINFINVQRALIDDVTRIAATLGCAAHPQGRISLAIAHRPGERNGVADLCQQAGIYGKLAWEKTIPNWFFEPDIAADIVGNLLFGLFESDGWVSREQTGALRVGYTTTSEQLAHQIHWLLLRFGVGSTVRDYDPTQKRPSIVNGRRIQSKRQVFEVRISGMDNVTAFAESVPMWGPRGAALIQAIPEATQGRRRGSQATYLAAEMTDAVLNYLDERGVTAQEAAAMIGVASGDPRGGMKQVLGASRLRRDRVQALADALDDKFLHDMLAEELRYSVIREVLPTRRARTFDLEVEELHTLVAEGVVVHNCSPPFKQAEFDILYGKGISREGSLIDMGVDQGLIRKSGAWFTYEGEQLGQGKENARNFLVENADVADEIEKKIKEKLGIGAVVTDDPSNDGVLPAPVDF

Lysine-specific demethylase 4A, sequence (O75164 whole entry): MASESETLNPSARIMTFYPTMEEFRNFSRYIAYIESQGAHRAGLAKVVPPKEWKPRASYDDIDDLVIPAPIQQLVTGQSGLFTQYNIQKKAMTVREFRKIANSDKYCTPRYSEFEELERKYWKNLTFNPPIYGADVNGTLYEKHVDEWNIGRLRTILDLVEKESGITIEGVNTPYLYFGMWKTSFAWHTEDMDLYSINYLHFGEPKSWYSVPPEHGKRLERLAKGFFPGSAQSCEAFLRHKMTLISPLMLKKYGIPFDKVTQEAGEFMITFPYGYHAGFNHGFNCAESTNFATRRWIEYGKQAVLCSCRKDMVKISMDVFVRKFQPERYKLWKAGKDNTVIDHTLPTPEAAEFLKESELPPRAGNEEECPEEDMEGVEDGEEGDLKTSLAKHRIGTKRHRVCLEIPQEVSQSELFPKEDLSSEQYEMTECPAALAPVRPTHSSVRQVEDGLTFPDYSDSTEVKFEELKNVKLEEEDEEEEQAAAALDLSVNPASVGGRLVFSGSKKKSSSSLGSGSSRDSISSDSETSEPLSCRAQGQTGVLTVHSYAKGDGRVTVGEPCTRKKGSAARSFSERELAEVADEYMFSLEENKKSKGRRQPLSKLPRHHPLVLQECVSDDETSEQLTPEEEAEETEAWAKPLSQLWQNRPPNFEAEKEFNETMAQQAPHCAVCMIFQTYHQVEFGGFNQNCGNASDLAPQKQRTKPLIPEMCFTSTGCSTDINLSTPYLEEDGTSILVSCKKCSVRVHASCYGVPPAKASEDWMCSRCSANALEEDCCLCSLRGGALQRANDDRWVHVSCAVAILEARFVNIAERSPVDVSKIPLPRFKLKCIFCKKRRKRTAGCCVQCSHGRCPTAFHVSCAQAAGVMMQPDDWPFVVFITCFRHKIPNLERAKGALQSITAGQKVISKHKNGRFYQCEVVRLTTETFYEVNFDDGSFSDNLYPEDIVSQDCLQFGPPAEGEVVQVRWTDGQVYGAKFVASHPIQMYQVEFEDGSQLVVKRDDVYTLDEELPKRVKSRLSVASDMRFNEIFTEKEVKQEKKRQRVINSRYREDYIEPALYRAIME
Cytochrome P450 2D6, sequence (P10635 whole entry): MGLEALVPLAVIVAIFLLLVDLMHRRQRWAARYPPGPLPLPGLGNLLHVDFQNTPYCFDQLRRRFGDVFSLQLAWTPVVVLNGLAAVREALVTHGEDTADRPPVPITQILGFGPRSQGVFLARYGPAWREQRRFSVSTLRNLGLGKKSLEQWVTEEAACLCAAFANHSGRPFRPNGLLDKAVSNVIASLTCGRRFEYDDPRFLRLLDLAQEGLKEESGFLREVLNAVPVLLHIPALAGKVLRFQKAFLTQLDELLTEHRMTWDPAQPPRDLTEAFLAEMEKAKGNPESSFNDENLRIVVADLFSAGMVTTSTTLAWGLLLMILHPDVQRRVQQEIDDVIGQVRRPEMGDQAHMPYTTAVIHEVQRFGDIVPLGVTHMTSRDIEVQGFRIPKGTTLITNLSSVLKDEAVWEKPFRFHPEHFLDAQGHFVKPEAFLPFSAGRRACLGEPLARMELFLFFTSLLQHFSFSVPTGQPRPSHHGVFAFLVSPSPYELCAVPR
SUMO E1/E2, sequence (Q9UBE0 whole entry): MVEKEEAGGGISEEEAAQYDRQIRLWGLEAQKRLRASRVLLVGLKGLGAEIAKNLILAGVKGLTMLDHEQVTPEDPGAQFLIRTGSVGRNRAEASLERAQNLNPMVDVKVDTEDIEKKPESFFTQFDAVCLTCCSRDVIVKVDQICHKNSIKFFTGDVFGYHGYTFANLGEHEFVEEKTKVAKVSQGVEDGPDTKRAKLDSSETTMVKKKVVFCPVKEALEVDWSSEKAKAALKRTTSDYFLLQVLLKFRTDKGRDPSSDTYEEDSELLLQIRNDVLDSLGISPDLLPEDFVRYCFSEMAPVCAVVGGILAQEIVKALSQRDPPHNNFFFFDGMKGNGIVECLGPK
SUMO E1/E2, sequence (Q9UBT2 whole entry): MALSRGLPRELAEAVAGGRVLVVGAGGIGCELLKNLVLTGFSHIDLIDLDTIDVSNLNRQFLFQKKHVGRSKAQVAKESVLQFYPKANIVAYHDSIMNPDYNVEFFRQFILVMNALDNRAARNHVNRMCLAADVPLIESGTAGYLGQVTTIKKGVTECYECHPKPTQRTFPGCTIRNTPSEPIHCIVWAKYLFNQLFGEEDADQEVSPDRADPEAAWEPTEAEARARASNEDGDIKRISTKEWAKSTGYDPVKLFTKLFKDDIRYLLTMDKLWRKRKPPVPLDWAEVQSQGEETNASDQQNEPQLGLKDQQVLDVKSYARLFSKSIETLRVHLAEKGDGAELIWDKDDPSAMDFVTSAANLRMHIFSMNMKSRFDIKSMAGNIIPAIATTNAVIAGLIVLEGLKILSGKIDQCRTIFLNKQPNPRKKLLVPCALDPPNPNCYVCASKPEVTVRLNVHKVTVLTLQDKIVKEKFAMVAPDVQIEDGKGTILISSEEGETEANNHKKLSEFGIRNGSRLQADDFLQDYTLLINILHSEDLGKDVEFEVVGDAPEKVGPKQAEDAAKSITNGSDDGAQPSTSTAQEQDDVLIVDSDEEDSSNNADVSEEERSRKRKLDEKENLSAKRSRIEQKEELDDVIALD
SUMO E1/E2, sequence (P63279 whole entry): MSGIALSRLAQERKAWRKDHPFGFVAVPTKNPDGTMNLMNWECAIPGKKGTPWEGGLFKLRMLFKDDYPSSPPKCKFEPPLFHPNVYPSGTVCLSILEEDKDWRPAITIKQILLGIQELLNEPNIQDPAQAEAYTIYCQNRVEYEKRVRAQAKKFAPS
Lysine-specific demethylase 4C, sequence (Q9H3R0 whole entry): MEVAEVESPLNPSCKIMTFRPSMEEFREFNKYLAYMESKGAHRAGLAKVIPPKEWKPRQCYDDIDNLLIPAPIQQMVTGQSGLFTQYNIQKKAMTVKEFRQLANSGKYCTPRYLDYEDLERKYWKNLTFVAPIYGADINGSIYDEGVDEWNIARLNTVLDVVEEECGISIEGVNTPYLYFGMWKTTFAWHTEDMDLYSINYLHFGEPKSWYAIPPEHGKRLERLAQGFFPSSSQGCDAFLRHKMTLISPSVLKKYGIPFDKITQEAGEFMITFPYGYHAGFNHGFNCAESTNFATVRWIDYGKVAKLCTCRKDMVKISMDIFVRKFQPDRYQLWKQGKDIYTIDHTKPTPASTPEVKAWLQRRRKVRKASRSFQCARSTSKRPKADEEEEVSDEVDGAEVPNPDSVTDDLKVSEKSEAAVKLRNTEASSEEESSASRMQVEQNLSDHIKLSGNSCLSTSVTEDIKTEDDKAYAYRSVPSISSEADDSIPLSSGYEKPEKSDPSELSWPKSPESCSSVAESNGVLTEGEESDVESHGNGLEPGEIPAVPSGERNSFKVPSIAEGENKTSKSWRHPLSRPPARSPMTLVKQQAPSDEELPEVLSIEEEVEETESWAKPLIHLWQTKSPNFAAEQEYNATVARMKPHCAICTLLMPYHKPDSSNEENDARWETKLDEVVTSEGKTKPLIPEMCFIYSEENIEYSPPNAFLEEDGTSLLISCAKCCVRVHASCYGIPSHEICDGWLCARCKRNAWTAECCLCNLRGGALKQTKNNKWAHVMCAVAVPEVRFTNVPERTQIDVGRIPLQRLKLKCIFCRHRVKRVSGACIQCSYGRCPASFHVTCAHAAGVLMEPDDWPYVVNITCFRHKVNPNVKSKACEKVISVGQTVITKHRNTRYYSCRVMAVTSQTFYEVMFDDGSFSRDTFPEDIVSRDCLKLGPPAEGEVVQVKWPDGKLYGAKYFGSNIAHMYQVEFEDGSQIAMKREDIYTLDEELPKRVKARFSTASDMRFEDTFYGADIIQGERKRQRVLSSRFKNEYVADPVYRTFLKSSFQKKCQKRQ

## CC(=NOCc1nc2ccccc2c(=O)n1N=Cc1cc([N+](=O)[O-])ccc1O)c1ccccc1
SUMO E1/E2
  IC50: 27 µM (active)

## COc1ccc(Nc2cc(C)nc(-n3nc(C)cc3C)n2)cc1
[1]
  EC50: 142 nM (active)
[2]
  CC50: 1.41 µM (active)
BJ [3]
  EC50: 388 nM (inconclusive)
[4]
  IC50: 2.54 µM (active)
BJ [5]
  EC50: 973 nM (active)
[6]
  IC50: < 250 nM (active)
[7]
  CC50: > 20 µM (active)
[8]
  IC50: > 80 µM (inactive)
[9]
  EC50: < 195 nM (active)
[10]
  EC50: 400 nM (active)
[11]
  EC50: 266 nM (active)
cells
  IC50: 380 nM (active)
[12]
  CC50: 201 nM (active)
BJ [13]
  EC50: 625 nM (active)

## Cc1ccc(N2CCN(CCCCN3C(=O)C4CCCN4C3=O)CC2)cc1 (stereo not drawn)
[14]
  IC50: > 79.4 µM (inactive)
[15]
  IC50: > 79.4 µM (inactive)
[16]
  IC50: > 79.4 µM (inactive)

## COc1ccccc1NC(=O)COC(=O)c1nc(O)nc(O)c1N
[17]
  AC50: 8.34 µM (active)
[18]
  AC50: 6.73 µM (active)

## CCO/C(O)=C1/C(C)=NC2(O)c3ccccc3C(=O)C12O (stereo not drawn)
[19]
  AC50: 24 µM (active)
Cytochrome P450 2D6
  AC50: inconclusive
Protein RecA
  EC50: 18.1 µM (active)
